In patent publication US10611731B2, “5-methyl-6-phenyl-4,5-dihydro-2H-pyridazin-3-one derivative” (OTSUKA PHARMACEUTICAL CO., LTD., priority 2016, dated 2020):

Key:
[1] = test system: human childhood brain tumor cell lines (PFSK-1); assay: Growth inhibitory activity against PFSK-1 cells (WST-8, Cell Counting Kit-8); assay type: cell-based; conditions: Homo sapiens, 72 h, 3 days incubation with test compound, WST-8 OD 450/630 nm, read-out: IC50 (concentration inhibiting 50% of the cell growth)
How it was run: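 Cells seeded in RPMI 1640 with 10% FBS and preincubated 24 h at 37 °C, 5% CO2, then exposed to compound for 3 days. IC50 (nM) from growth relative to untreated control.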

| Structure (SMILES) | melting point | IC50 [1] |
| --- | --- | --- |
| Cc1cc(C2=NNC(=O)CC2C)cc(Cl)c1OCCO (centres unmarked) [Example 4, 6-[3-Chloro-4-(2-hydroxyethoxy)-5-methylphenyl]-5-methyl-4,5-dihydro-2H-pyridazin-3-one] | 157.4 to 157.6 °C | – |
| Cc1cc(C2=NNC(=O)CC2C)cc(Cl)c1OCCCO (centres unmarked) [Example 17, 6-[3-Chloro-4-(3-hydroxypropoxy)-5-methylphenyl]-5-methyl-4,5-dihydro-2H-pyridazin-3-one] | 129.7 to 132.6 °C | 2.9 nM |
| CC1CC(=O)NN=C1c1cc(Cl)c(OCCCO)c(Br)c1 (centres unmarked) [Example 18, 6-[3-Bromo-5-chloro-4-(3-hydroxypropoxy)phenyl]-5-methyl-4,5-dihydro-2H-pyridazin-3-one] | 153 to 156.6 °C | 4 nM |
| CC1CC(=O)NN=C1c1ccc(OCCCO)c(Cl)c1O (centres unmarked) [Example 77, 6-[3-Chloro-2-hydroxy-4-(3-hydroxypropoxy)phenyl]-5-methyl-4,5-dihydro-2H-pyridazin-3-one] | 225 to 225.3 °C | 5.3 nM |
| Cc1c(OCCCO)ccc(C2=NNC(=O)CC2C)c1O (centres unmarked) [Example 78, 6-[2-Hydroxy-4-(3-hydroxypropoxy)-3-methylphenyl]-5-methyl-4,5-dihydro-2H-pyridazin-3-one] | 199.1 to 200.1 °C | 6.6 nM |
| Cc1c(OCCCCO)ccc(C2=NNC(=O)CC2C)c1O (centres unmarked) [Example 87, 6-[2-Hydroxy-4-(4-hydroxybutoxy)-3-methylphenyl]-5-methyl-4,5-dihydro-2H-pyridazin-3-one] | 178.7 to 179.9 °C | 9.8 nM |
| CC1CC(=O)NN=C1c1ccc(OCCCCO)c(Cl)c1O (centres unmarked) [Example 88, 6-[3-Chloro-2-hydroxy-4-(4-hydroxybutoxy)phenyl]-5-methyl-4,5-dihydro-2H-pyridazin-3-one] | 204.5 to 204.9 °C | 9.5 nM |
| C=Cc1c(OCCCCO)ccc(C2=NNC(=O)CC2C)c1F (centres unmarked) [Example 89, 6-[2-Fluoro-4-(4-hydroxybutoxy)-3-vinylphenyl]-5-methyl-4,5-dihydro-2H-pyridazin-3-one] | 106.4 to 107.4 °C | 4.9 nM |
| CC1CC(=O)NN=C1c1cc(Cl)c(OCC2(O)CC2)c(Cl)c1 (centres unmarked) [Example 170, 6-{3,5-Dichloro-4-[(1-hydroxycyclopropyl)methoxy]phenyl}-5-methyl-4,5-dihydro-2H-pyridazin-3-one] | – | 2.5 nM |
| Cc1cc(C2=NNC(=O)CC2C)c(F)c(C)c1OCC1(O)CC1 (centres unmarked) [Example 171, 6-{2-Fluoro-4-[(1-hydroxycyclopropyl)methoxy]-3,5-dimethylphenyl}-5-methyl-4,5-dihydro-2H-pyridazin-3-one] | – | 6.3 nM |
| CC1CC(=O)NN=C1c1cc(F)c(OCC2(O)CC2)c(Cl)c1F (centres unmarked) [Example 172, 6-{3-Chloro-2,5-difluoro-4-[(1-hydroxycyclopropyl)methoxy]phenyl}-5-methyl-4,5-dihydro-2H-pyridazin-3-one] | – | 5.2 nM |
| CC1CC(=O)NN=C1c1ccc(OCC2(O)CC2)c(Cl)c1O (centres unmarked) [Example 174, 6-{3-Chloro-2-hydroxy-4-[(1-hydroxycyclopropyl)methoxy]phenyl}-5-methyl-4,5-dihydro-2H-pyridazin-3-one] | – | 4.2 nM |
| Cc1cc(C2=NNC(=O)CC2C)c(O)c(Cl)c1OCC1(O)CC1 (centres unmarked) [Example 175, 6-{3-Chloro-2-hydroxy-4-[(1-hydroxycyclopropyl)methoxy]-5-methylphenyl}-5-methyl-4,5-dihydro-2H-pyridazin-3-one] | – | 4.1 nM |
| Cc1c(O)c(C2=NNC(=O)CC2C)cc(Cl)c1OCC1(O)CC1 (centres unmarked) [Example 176, 6-{5-Chloro-2-hydroxy-4-[(1-hydroxycyclopropyl)methoxy]-3-methylphenyl}-5-methyl-4,5-dihydro-2H-pyridazin-3-one] | – | 9.2 nM |
| Cc1cc(C2=NNC(=O)CC2C)c(F)cc1OC(F)(F)CO (centres unmarked) [Example 177, 6-[4-(1,1-difluoro-2-hydroxyethoxy)-2-fluoro-5-methylphenyl]-5-methyl-4,5-dihydro-2H-pyridazin-3-one] | – | 4 nM |
| Cc1c(OCCCO)ccc(C2=NNC(=O)C[C@H]2C)c1O [Example 178, (5R)-(−)-6-[2-hydroxy-4-(3-hydroxypropoxy)-3-methylphenyl]-5-methyl-4,5-dihydro-2H-pyridazin-3-one] | – | 4.6 nM |
| Cc1c(OCC(C)(C)O)ccc(C2=NNC(=O)C[C@H]2C)c1O [Example 179, (5R)-(−)-6-[2-hydroxy-4-(2-hydroxy-2-methylpropoxy)-3-methylphenyl]-5-methyl-4,5-dihydro-2H-pyridazin-3-one] | – | 3.3 nM |
| C[C@@H]1CC(=O)NN=C1c1ccc(OCCCCO)c(Cl)c1O [Example 180, (5R)-(−)-6-[3-chloro-2-hydroxy-4-(4-hydroxybutoxy)phenyl]-5-methyl-4,5-dihydro-2H-pyridazin-3-one] | – | 6.5 nM |
| Cc1cc(C2=NNC(=O)C[C@H]2C)c(O)c(Cl)c1OCCCO [Example 181, (5R)-(−)-6-[3-chloro-2-hydroxy-4-(3-hydroxypropoxy)-5-methylphenyl]-5-methyl-4,5-dihydro-2H-pyridazin-3-one] | – | 3.9 nM |
| C[C@@H]1CC(=O)NN=C1c1ccc(OCC(C)(C)O)c(Cl)c1O [Example 182, (5R)-(−)-6-[3-chloro-2-hydroxy-4-(2-hydroxy-2-methylpropoxy)phenyl]-5-methyl-4,5-dihydro-2H-pyridazin-3-one] | – | 2.9 nM |
| C[C@@H]1CC(=O)NN=C1c1ccc(OC/C=C\CO)c(Cl)c1O [Example 183, (5R)-(−)-6-{3-chloro-2-hydroxy-4-[(Z)-4-hydroxy-2-butenyloxy]phenyl}-5-methyl-4,5-dihydro-2H-pyridazin-3-one] | – | 4.5 nM |
| CC1CC(=O)NN=C1c1ccc(OCC(C)(C)O)c(C(F)(F)F)c1F (centres unmarked) [Example 184, 6-[2-fluoro-4-(2-hydroxy-2-methylpropoxy)-3-(trifluromethyl)phenyl]-5-methyl-4,5-dihydro-2H-pyridazin-3-one] | – | 2.2 nM |
